Measurements: the supplement of paper PMC10307832

Assays:
Test in all cases: relative viability (nuclei count vs DMSO), 5 days (fraction); higher = more cells survive
COR-L 105 = system: COR-L 105
Outline: (§1)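 Relative viability divides the nuclei count in treated wells by that in vehicle wells. Lung cancer cell lines were seeded in 1536-well plates, dosed by pin tool the next day, and fixed and stained after 5 days in one step with final 0.05% Triton X-100, 1% formaldehyde and 1 ug/ml Hoechst. Dosing was a single drug or a fixed anchor-drug dose plus five library-drug doses (not always all listed) in √10 steps, and values are medians of duplicate plates imaged at 4×.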

A-427 = system: A-427
Outline: as §1

NCI-H441 = system: NCI-H441
Outline: as §1

NCI-H1792 = system: NCI-H1792
Outline: as §1

NCI-H23 = system: NCI-H23
Outline: as §1

EMC-BAC-2 = system: EMC-BAC-2
Outline: as §1

ChaGo-K-1 = system: ChaGo-K-1
Outline: as §1

NCI-H1975 = system: NCI-H1975
Outline: as §1

H3255 = system: H3255
Outline: as §1

NCI-H1666 = system: NCI-H1666
Outline: as §1

NCI-H596 = system: NCI-H596
Outline: as §1

NCI-H1755 = system: NCI-H1755
Outline: as §1

NCI-H520 = system: NCI-H520
Outline: as §1

NCI-H2170 = system: NCI-H2170
Outline: as §1

NCI-H1563 = system: NCI-H1563
Outline: as §1

SK-MES-1 = system: SK-MES-1
Outline: as §1

EKVX = system: EKVX
Outline: as §1

PC-3 [JPC-3] = system: PC-3 [JPC-3]
Outline: as §1

LOU-NH91 = system: LOU-NH91
Outline: as §1

LK-2 = system: LK-2
Outline: as §1

NCI-H1734 = system: NCI-H1734
Outline: as §1

SW 900 = system: SW 900
Outline: as §1

SMILES: Oc1nc(-c2ccc(C(F)(F)F)cc2)nc2c1CSCC2 [XAV939] + CCNC(=O)c1noc(-c2cc(C(C)C)c(O)cc2O)c1-c1ccc(CN2CCOCC2)cc1 [Luminespib] (partner 0.01 µM)
- relative viability (COR-L 105; first compound 0.08 µM): 0.964
- relative viability (COR-L 105; first compound 0.253 µM): 0.742
- relative viability (COR-L 105; first compound 0.8 µM): 0.458
- relative viability (COR-L 105; first compound 2.53 µM): 0.763
- relative viability (A-427; first compound 0.08 µM): 1.15
- relative viability (A-427; first compound 0.253 µM): 0.978
- relative viability (A-427; first compound 0.8 µM): 0.753
- relative viability (A-427; first compound 2.53 µM): 0.782
- relative viability (NCI-H441; first compound 0.08 µM): 0.374
- relative viability (NCI-H441; first compound 0.253 µM): 0.355
- relative viability (NCI-H441; first compound 0.8 µM): 0.245
- relative viability (NCI-H441; first compound 2.53 µM): 0.282
- relative viability (NCI-H1792; first compound 0.08 µM): 0.419
- relative viability (NCI-H1792; first compound 0.253 µM): 0.391
- relative viability (NCI-H1792; first compound 0.8 µM): 0.466
- relative viability (NCI-H1792; first compound 2.53 µM): 0.464
- relative viability (NCI-H23; first compound 0.08 µM): 0.251
- relative viability (NCI-H23; first compound 0.253 µM): 0.214
- relative viability (NCI-H23; first compound 0.8 µM): 0.224
- relative viability (NCI-H23; first compound 2.53 µM): 0.221
- relative viability (EMC-BAC-2; first compound 0.08 µM): 1.37
- relative viability (EMC-BAC-2; first compound 0.253 µM): 1.09
- relative viability (EMC-BAC-2; first compound 0.8 µM): 0.971
- relative viability (EMC-BAC-2; first compound 2.53 µM): 0.771
- relative viability (ChaGo-K-1; first compound 0.08 µM): 0.586
- relative viability (ChaGo-K-1; first compound 0.253 µM): 0.384
- relative viability (ChaGo-K-1; first compound 0.8 µM): 0.508
- relative viability (ChaGo-K-1; first compound 2.53 µM): 0.523
- relative viability (NCI-H1975; first compound 0.08 µM): 0.217
- relative viability (NCI-H1975; first compound 0.253 µM): 0.246
- relative viability (NCI-H1975; first compound 0.8 µM): 0.204
- relative viability (NCI-H1975; first compound 2.53 µM): 0.139
- relative viability (H3255; first compound 0.08 µM): 1.09
- relative viability (H3255; first compound 0.253 µM): 0.879
- relative viability (H3255; first compound 0.8 µM): 0.804
- relative viability (H3255; first compound 2.53 µM): 0.907
- relative viability (NCI-H1666; first compound 0.08 µM): 1.07
- relative viability (NCI-H1666; first compound 0.253 µM): 0.666
- relative viability (NCI-H1666; first compound 0.8 µM): 0.981
- relative viability (NCI-H1666; first compound 2.53 µM): 0.848
- relative viability (NCI-H596; first compound 0.08 µM): 1.06
- relative viability (NCI-H596; first compound 0.253 µM): 0.881
- relative viability (NCI-H596; first compound 0.8 µM): 1.13
- relative viability (NCI-H596; first compound 2.53 µM): 0.873
- relative viability (NCI-H1755; first compound 0.08 µM): 0.522
- relative viability (NCI-H1755; first compound 0.253 µM): 0.457
- relative viability (NCI-H1755; first compound 0.8 µM): 0.361
- relative viability (NCI-H1755; first compound 2.53 µM): 0.488
- relative viability (NCI-H520; first compound 0.08 µM): 0.233
- relative viability (NCI-H520; first compound 0.253 µM): 0.243
- relative viability (NCI-H520; first compound 0.8 µM): 0.201
- relative viability (NCI-H520; first compound 2.53 µM): 0.204
- relative viability (NCI-H2170; first compound 0.08 µM): 0.764
- relative viability (NCI-H2170; first compound 0.253 µM): 0.754
- relative viability (NCI-H2170; first compound 0.8 µM): 0.704
- relative viability (NCI-H2170; first compound 2.53 µM): 0.529
- relative viability (NCI-H1563; first compound 0.08 µM): 0.617
- relative viability (NCI-H1563; first compound 0.253 µM): 0.481
- relative viability (NCI-H1563; first compound 0.8 µM): 0.505
- relative viability (NCI-H1563; first compound 2.53 µM): 0.489
- relative viability (SK-MES-1; first compound 0.08 µM): 0.915
- relative viability (SK-MES-1; first compound 0.253 µM): 0.726
- relative viability (SK-MES-1; first compound 0.8 µM): 0.654
- relative viability (SK-MES-1; first compound 2.53 µM): 0.48
- relative viability (EKVX; first compound 0.08 µM): 0.947
- relative viability (EKVX; first compound 0.253 µM): 0.786
- relative viability (EKVX; first compound 0.8 µM): 0.818
- relative viability (EKVX; first compound 2.53 µM): 0.7
- relative viability (PC-3 [JPC-3]; first compound 0.08 µM): 0.829
- relative viability (PC-3 [JPC-3]; first compound 0.253 µM): 0.647
- relative viability (PC-3 [JPC-3]; first compound 0.8 µM): 0.68
- relative viability (PC-3 [JPC-3]; first compound 2.53 µM): 0.635
- relative viability (LOU-NH91; first compound 0.08 µM): 0.322
- relative viability (LOU-NH91; first compound 0.253 µM): 0.337
- relative viability (LOU-NH91; first compound 0.8 µM): 0.432
- relative viability (LOU-NH91; first compound 2.53 µM): 0.295
- relative viability (LK-2; first compound 0.08 µM): 0.202
- relative viability (LK-2; first compound 0.253 µM): 0.183
- relative viability (LK-2; first compound 0.8 µM): 0.192
- relative viability (LK-2; first compound 2.53 µM): 0.167
- relative viability (NCI-H1734; first compound 0.08 µM): 0.223
- relative viability (NCI-H1734; first compound 0.253 µM): 0.216
- relative viability (NCI-H1734; first compound 0.8 µM): 0.185
- relative viability (NCI-H1734; first compound 2.53 µM): 0.162
- relative viability (SW 900; first compound 0.08 µM): 0.171
- relative viability (SW 900; first compound 0.253 µM): 0.18
- relative viability (SW 900; first compound 0.8 µM): 0.183
- relative viability (SW 900; first compound 2.53 µM): 0.151
